Our source for the IC50 values is US8338465B2, “Cyclic carboxylic acid rhodanine derivatives for the treatment and prevention of tuberculosis” (priority 2006, dated 2012).

In the experiment the target is T1, dihydrolipoamide acyltransferase (DlaT) (Mycobacterium tuberculosis, UniProt P9WIS7).
T1 sequence (P9WIS7 1-553): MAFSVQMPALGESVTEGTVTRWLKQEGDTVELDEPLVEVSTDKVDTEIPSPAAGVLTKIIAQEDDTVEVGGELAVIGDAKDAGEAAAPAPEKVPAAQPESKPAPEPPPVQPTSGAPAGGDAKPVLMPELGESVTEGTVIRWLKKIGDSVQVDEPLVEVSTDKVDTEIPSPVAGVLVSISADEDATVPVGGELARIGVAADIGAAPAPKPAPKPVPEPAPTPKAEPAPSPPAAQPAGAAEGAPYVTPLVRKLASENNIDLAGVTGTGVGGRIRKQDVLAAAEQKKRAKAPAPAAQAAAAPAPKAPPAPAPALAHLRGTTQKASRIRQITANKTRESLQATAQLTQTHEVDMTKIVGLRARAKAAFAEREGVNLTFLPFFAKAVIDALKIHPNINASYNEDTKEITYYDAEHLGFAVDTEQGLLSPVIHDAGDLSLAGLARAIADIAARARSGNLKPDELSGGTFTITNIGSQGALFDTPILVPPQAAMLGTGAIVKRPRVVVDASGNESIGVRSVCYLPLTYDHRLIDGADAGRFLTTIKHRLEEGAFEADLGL
The experiment can be described thus: DlaT inhibition (Dlat IC50); DTNB peroxidase assay with Lpd, DlaT and AhpD. In kind it is biochemical.

Where [1] appears, read: Table 1, Compounds A1 to A294, read-out: Dlat IC50 category.

Where a name gives a salt, the structure may show the parent alone. Read-outs that look alike come from different tables or passages of the source.

Usually IC50 stands for the concentration at which inhibition is half-maximal. In the case of `O=C(O)c1ccc(Cl)c(N2C(=O)C(=Cc3ccc(-c4ccc(Cl)cc4)o3)SC2=S)c1` [Compound A72], the IC50 under setting [1] is under 10 µM.

The compound `Cc1cc(C)c(-c2ccc(C=C3SC(=S)N(Nc4ccccc4C(=O)O)C3=O)o2)c(C)c1` [Compound D28, 2-{4-Oxo-2-thioxo-5-[5-(2,4,6-trimethyl-phenyl)-furan-2-ylmethylene]-thiazolidin-3-ylamino}-benzoic acid] had an IC50 (Dlat IC50 category) of under 10 µM. Turning to `O=C(O)c1ccc(F)c(N2C(=O)C(=Cc3ccc(-c4ccc(C5CCCCC5)cc4)o3)SC2=S)c1` [Compound A101], under setting [1], the IC50 was under 10 µM.

On to `Cc1ccc(-c2ccc(C=C3SC(=S)N(c4cccc(C(=O)O)c4)C3=O)o2)c(C)c1` [Compound A155], for which, under setting [1], the half-maximal inhibitory concentration (IC50) is 11 to 40 µM. On to `CC(=O)Nc1ccc(-c2ccc(C=C3SC(=S)N(c4cc(C(=O)O)ccc4F)C3=O)o2)cc1` [Compound A205], for which the half-inhibitory concentration (IC50) under setting [1] is under 10 µM. On to `Cc1ccccc1-c1ccc(C=C2SC(=S)N(c3cccc(C(=O)O)c3)C2=O)s1` [Compound A187], for which, under setting [1], the IC50 was in the range of 11 to 40 µM. The same measure, in the same setting: in the case of `COc1ccc(-c2ccc(C=C3SC(=S)N(c4cccc(C(=O)O)c4)C3=O)o2)c(C)c1` [Compound A159] it was 11 to 40 µM; in that of `O=C(O)c1cccc(N2C(=O)C(=Cc3ccc(-c4cc(Cl)cc(Cl)c4)o3)SC2=S)c1` [Compound A121], 11 to 40 µM.

With `COc1ccccc1-c1ccc(C=C2SC(=S)N(c3cc(C(=O)O)ccc3Cl)C2=O)o1` [Compound A140], the IC50 under setting [1] was under 10 µM.

In the case of `Cc1ccc(-c2cccc(C=C3SC(=S)N(Nc4ccccc4C(=O)O)C3=O)c2)cc1` [Compound D55, 2-{5-[1-(4′-methyl-biphenyl-3-yl)-methylidene]-4-oxo-2-thioxo-thiazolidin-3-ylamino}-benzoic acid], the IC50 (Dlat IC50 category) was under 10 µM. The compound `O=C(O)CN1C(=O)C(=Cc2ccc(-c3ccc(C4CCCCC4)cc3)o2)SC1=S` [Compound B73] yielded an IC50 (Dlat IC50 category) of under 10 µM. Regarding `O=C(O)c1ccccc1NN1C(=O)C(=Cc2ccc(-c3cccc(C(F)(F)F)c3)o2)SC1=S` [Compound D3, 2-{4-oxo-2-thioxo-5-[1-[5-(3-trifluoromethyl-phenyl)-furan-2-yl]-methylidene]-thiazolidin-3-ylamino}-benzoic acid], the IC50 (Dlat IC50 category) is under 10 µM. With `CSc1ccccc1-c1ccc(C=C2SC(=S)N(c3cc(C(=O)O)ccc3F)C2=O)o1` [Compound A186], under setting [1], the IC50 is under 10 µM. Regarding `O=C(O)c1cncc(N2C(=O)C(=Cc3ccc(-c4cccc(C(F)(F)F)c4)o3)SC2=S)c1` [Compound M2], for the setting “Dlat IC50 category, Table 13, Compounds M1 to M4”, the IC50 is under 10 µM. As to `O=C(O)c1cc(N2C(=O)C(=Cc3ccc(-c4ccccc4C(F)(F)F)o3)SC2=S)ccc1F` [Compound A280], the IC50 under setting [1] fell in the range of 11 to 40 µM. For the setting “Dlat IC50 category”, `O=C(O)CCCCCN1C(=O)C(=Cc2ccc(-c3ccc(Cl)c(Cl)c3)o2)SC1=S` [Compound B14] had an IC50 of under 10 µM.

Consider `CCCCc1ccc(-c2ccc(C=C3SC(=S)N(Nc4ccccc4C(=O)O)C3=O)o2)cc1` [Compound D59, 2-{5-[1-[5-(4-butyl-phenyl)-furan-2-yl]-methylidene]-4-oxo-2-thioxo-thiazolidin-3-ylamino}-benzoic acid], for which the half-inhibitory concentration (IC50) (Dlat IC50 category) is under 10 µM. For the compound `COc1cc(F)ccc1-c1ccc(C=C2SC(=S)N(c3cc(C(=O)O)ccc3F)C2=O)o1` [Compound A176], under setting [1], the 50% inhibitory concentration (IC50) was under 10 µM. Regarding `O=C(O)c1cccc(N2C(=O)C(=Cc3ccc(Cc4ccccc4Cl)o3)SC2=S)c1` [Compound N1], the concentration for half-maximal inhibition (IC50) (Dlat IC50 category, Table 14, Compounds N1 to N3) is under 10 µM. Take `O=C(O)C1CCCC(N2C(=O)C(=Cc3ccc(-c4ccc(Cc5ccccc5)cc4)o3)SC2=S)C1` (stereo not shown) [Compound C6, 3-{5-[1-[5-(4-benzyl-phenyl)-furan-2-yl]-methylidene]-4-oxo-2-thioxo-thiazolidin-3-yl}-cyclohexanecarboxylic acid]: the IC50 (Dlat IC50 category) was under 10 µM. For the compound `O=C(O)c1cc(N2C(=O)C(=Cc3ccc(-c4ccccc4-c4ccccc4)o3)SC2=S)ccc1F` [Compound A284], the IC50 under setting [1] was under 10 µM. Take `Cc1ccccc1-c1ccc(C=C2SC(=S)N(c3cc(C(=O)O)ccc3C)C2=O)o1` [Compound A145]: the IC50 under setting [1] was under 10 µM. In the case of `Cc1ccc(-c2ccc(C=C3SC(=S)N(c4cccc(C(=O)O)c4)C3=O)o2)c(F)c1` [Compound A150], the concentration for half-maximal inhibition (IC50) under setting [1] was in the range of 11 to 40 µM. On to `CS(=O)(=O)c1ccc(-c2ccc(C=C3SC(=S)N(c4cc(C(=O)O)ccc4F)C3=O)o2)cc1` [Compound A229], for which the IC50 under setting [1] lay in the range of 11 to 40 µM. Regarding `O=C(O)c1cc(N2C(=O)C(=Cc3ccc(-c4ccc(Cl)cc4)o3)SC2=S)ccc1F` [Compound A258], the IC50 under setting [1] was under 10 µM. `CC(C)c1cccc(-c2ccc(C=C3SC(=S)N(c4cccc(O)c4)C3=O)o2)c1` [Compound A55]: the IC50 under setting [1] is 11 to 40 µM.

Consider `Cc1ccc(-c2ccc(C=C3SC(=S)N(c4cc(C(=O)O)ccc4F)C3=O)o2)cc1` [Compound A165], for which the IC50 under setting [1] was under 10 µM. For `CC(C)Oc1ccc(-c2ccc(C=C3SC(=S)N(C4CCCC(C(=O)O)C4)C3=O)o2)cc1` (stereo not shown) [Compound C66, 3-{5-[5-(4-Isopropoxy-phenyl)-furan-2-ylmethylene]-4-oxo-2-thioxo-thiazolidin-3-yl}-cyclohexanecarboxylic acid], where the note is “Dlat IC50 category”, the half-inhibitory concentration (IC50) is under 10 µM. `COc1ccc(-c2ccc(C=C3SC(=S)N(C(C(=O)O)C(C)C)C3=O)o2)cc1Cl` (stereo not shown) [Compound B109] returned an IC50 (Dlat IC50 category) of under 10 µM.

As for `CSc1cccc(-c2ccc(C=C3SC(=S)N(c4cc(C(=O)O)ccc4F)C3=O)o2)c1` [Compound A237], the IC50 under setting [1] was under 10 µM. Regarding `O=C(O)c1cccc(N2C(=O)C(=Cc3cccc(-c4ccccc4Cl)n3)SC2=S)c1` [Compound A5], the concentration for half-maximal inhibition (IC50) under setting [1] was over 41 µM. Consider `O=C(O)c1cc(N2C(=O)C(=Cc3ccc(-c4ccccc4Oc4ccccc4)o3)SC2=S)ccc1F` [Compound A283], for which the IC50 under setting [1] is under 10 µM.

As to `COc1ccc(-c2ccc(C=C3SC(=S)N(Nc4ccccc4C(=O)O)C3=O)o2)c(C)c1` [Compound D9, 2-{5-[1-[5-(4-methoxy-2-methyl-phenyl)-furan-2-yl]-methylidene]-4-oxo-2-thioxo-thiazolidin-3-ylamino}-benzoic acid], the 50% inhibitory concentration (IC50) (Dlat IC50 category) was under 10 µM. As to `CCCCc1ccc(-c2ccc(C=C3SC(=S)N(c4ccc(F)c(C(=O)O)c4)C3=O)o2)cc1` [Compound A265], the IC50 under setting [1] was under 10 µM. `O=C(O)c1ccccc1NN1C(=O)C(=Cc2ccc(-c3ccccc3OCc3ccccc3)o2)SC1=S` [Compound D27, 2-{5-[1-[5-(2-benzyloxy-phenyl)-furan-2-yl]-methylidene]-4-oxo-2-thioxo-thiazolidin-3-ylamino}-benzoic acid]: the IC50 (Dlat IC50 category) lay in the range of 11 to 40 µM. With `O=C1C(=Cc2ccc(-c3ccccc3Cl)o2)SC(=S)N1c1cccc(O)c1` [Compound A49], under setting [1], the IC50 was 11 to 40 µM.

Take `COc1ccc(-c2ccc(C=C3SC(=S)N(C(C)C(=O)O)C3=O)o2)cc1Cl` (stereo not shown) [Compound B113]: the IC50 (Dlat IC50 category) was under 10 µM. Consider `O=C(O)c1cc(C(=O)O)cc(N2C(=O)C(=Cc3ccc(-c4ccc(Cl)cc4)o3)SC2=S)c1` [Compound A232], for which, under setting [1], the IC50 is 11 to 40 µM.

As to `Cc1ccc(-c2ccc(C=C3SC(=S)N(C4CCCC(C(=O)O)C4)C3=O)cc2)cc1` (stereo not shown) [Compound C72, 3-{5-[1-(4′-methyl-biphenyl-4-yl)-methylidene]-4-oxo-2-thioxo-thiazolidin-3-yl}-cyclohexanecarboxylic acid], the IC50 (Dlat IC50 category) is under 10 µM. On to `CC(C)(C)c1ccc(-c2ccc(C=C3SC(=S)N(Nc4ccccc4C(=O)O)C3=O)o2)cc1` (single isomer, unassigned) [Compound D2, 2-{5-[1-[5-(4-tert-butyl-phenyl)-furan-2-yl]-meth-(E)-ylidene]-4-oxo-2-thioxo-thiazolidin-3-ylamino}-benzoic acid], for which the IC50 (Dlat IC50 category) was under 10 µM.

Compound `O=C(O)CCCCCN1C(=O)C(=Cc2ccc(-c3ccccc3OC(F)(F)F)o2)SC1=S` [Compound B24] came in with a concentration for half-maximal inhibition (IC50) (Dlat IC50 category) of under 10 µM. Take `O=C(O)c1cccc(N2C(=O)C(=Cc3ccc(-c4ccccc4O)o3)SC2=S)c1` [Compound A162]: the 50% inhibitory concentration (IC50) under setting [1] was under 10 µM. As for `CC(C)(C)c1ccc(-c2ccc(C=C3SC(=S)N(c4cccc(C(=O)O)c4)C3=O)o2)c(O)c1` [Compound A133], under setting [1], the half-inhibitory concentration (IC50) is under 10 µM. Consider `Cc1c(C(=O)O)cccc1N1C(=O)C(=Cc2ccc(-c3ccccc3Cl)o2)SC1=S` [Compound A79], for which, under setting [1], the IC50 was under 10 µM. For the compound `CSc1ccc(-c2ccc(C=C3SC(=S)N(C4CCCC(C(=O)OCCN(CCO)CCO)C4)C3=O)o2)cc1` (stereo not shown) [Compound U10, 3-{5-[1-[5-(4-Methylsulfanyl-phenyl)-furan-2-yl]-methylidene]-4-oxo-2-thioxo-thiazolidin-3-yl}-cyclohexanecarboxylic acid 2-[bis-(2-hydroxy-ethyl)-amino]-ethyl ester hydrochloride], the IC50 (Dlat IC50 category, Table 21, Prodrugs (Examples U1 to U10)) was under 10 µM. `O=C(O)CCN1C(=O)C(=Cc2ccc(-c3ccc(-c4ccccc4)cc3)o2)SC1=S` [Compound B17] yielded a half-maximal inhibitory concentration (IC50) (Dlat IC50 category) of 11 to 40 µM. With `O=C(O)c1cccc(CCN2C(=O)C(=Cc3ccc(-c4ccccc4Cl)o3)SC2=S)c1` [Compound G1], the 50% inhibitory concentration (IC50) (Dlat IC50 category, Table 7, Compounds G1 to G4) was under 10 µM. Consider `CC(C)c1ccc(-c2ccc(C=C3SC(=S)N(c4ccc(O)c(C(=O)O)c4)C3=O)o2)cc1` [Compound A47], for which the concentration for half-maximal inhibition (IC50) under setting [1] is under 10 µM. Same read-out and setting: in the case of `COc1ccccc1-c1ccc(C=C2SC(=S)N(c3cccc(C(=O)O)c3)C2=O)o1` [Compound A135] it was under 10 µM.
